Experiments:
[1] = molecular target: T1, Neutral amino acid transporter B(0) (Homo sapiens, UniProt Q15758); test: Inhibition of ASCT2-mediated glutamine transport in human HEK293 cells using [3H]-glutamine after 15 mins by scintillation counting; type: cell-based
T1 sequence (Q15758 whole entry): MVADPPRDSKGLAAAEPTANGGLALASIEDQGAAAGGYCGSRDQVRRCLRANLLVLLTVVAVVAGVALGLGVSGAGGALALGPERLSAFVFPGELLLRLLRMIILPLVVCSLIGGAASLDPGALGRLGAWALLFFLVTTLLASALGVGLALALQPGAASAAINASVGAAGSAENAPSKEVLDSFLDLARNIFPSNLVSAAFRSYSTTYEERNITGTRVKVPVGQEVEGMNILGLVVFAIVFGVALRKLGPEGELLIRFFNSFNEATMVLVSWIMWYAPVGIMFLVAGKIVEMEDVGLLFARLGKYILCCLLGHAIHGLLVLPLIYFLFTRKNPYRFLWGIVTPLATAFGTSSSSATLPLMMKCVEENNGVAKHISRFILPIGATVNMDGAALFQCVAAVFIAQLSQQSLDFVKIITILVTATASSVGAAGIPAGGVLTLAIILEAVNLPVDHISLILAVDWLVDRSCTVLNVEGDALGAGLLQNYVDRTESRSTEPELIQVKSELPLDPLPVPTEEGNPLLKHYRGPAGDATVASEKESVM

Amino acid transporter = molecular target: T2, Amino acid transporter (Rattus norvegicus, UniProt Q9Z1J7); test: Inhibition of ASCT2-mediated glutamine transport in rat C6 cells using [3H]-glutamine after 15 mins by scintillation counting; type: cell-based
T2 sequence (Q9Z1J7 whole entry): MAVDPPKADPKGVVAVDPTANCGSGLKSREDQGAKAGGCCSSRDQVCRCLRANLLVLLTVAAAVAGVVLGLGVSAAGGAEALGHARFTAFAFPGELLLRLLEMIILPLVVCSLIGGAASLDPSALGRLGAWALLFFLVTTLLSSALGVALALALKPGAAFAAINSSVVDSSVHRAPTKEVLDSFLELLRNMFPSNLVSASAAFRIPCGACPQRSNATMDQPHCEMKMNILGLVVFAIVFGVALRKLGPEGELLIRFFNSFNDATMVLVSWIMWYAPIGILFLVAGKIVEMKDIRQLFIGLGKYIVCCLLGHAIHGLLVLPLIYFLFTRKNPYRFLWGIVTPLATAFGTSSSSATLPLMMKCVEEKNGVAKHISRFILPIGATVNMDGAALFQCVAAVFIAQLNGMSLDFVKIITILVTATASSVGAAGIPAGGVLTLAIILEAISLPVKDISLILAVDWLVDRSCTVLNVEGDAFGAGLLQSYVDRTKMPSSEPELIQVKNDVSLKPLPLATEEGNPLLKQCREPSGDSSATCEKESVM

[2] = molecular target: T1, Neutral amino acid transporter B(0); test: Inhibition of ASCT2 (unknown origin)-mediated glutamine transport

Row | Compound | IC50 [1] [µM] | IC50 (Amino acid transporter) [µM] | IC50 [2] [µM]
1 | N[C@@H](CCN(Cc1ccccc1OCc1ccccc1Cl)Cc1ccccc1OCc1ccccc1Cl)C(=O)O | 40.1 | 18.4 | 
2 | COc1cccc(Oc2ccccc2CN(CC[C@H](N)C(=O)O)Cc2ccccc2Oc2cccc(OC)c2)c1 | 57.2 | 1.3 | 
3 | N[C@@H](CCN(Cc1ccccc1OCc1ccc(F)cc1)Cc1ccccc1OCc1ccc(F)cc1)C(=O)O |  | 11.2 | 
4 | N[C@@H](CCN(Cc1ccccc1OCc1ccccn1)Cc1ccccc1OCc1ccccn1)C(=O)O | 48.3 | 8.4 | 
5 | N[C@@H](CCN(Cc1ccccc1Oc1ccc(F)cc1)Cc1ccccc1Oc1ccc(F)cc1)C(=O)O | 142 | 10.5 | 
6 | N#Cc1cc(Br)ccc1/N=c1\ssnc1Cl |  |  | 3.7
7 | N[C@@H](CCN(Cc1ccccc1OCc1cccc(Cl)c1)Cc1ccccc1OCc1cccc(Cl)c1)C(=O)O | 50.8 | 12.7 | 
8 | N[C@@H](CCN(Cc1ccccc1OCc1ccc(Cl)cc1)Cc1ccccc1OCc1ccc(Cl)cc1)C(=O)O | 33.7 | 20.1 | 
9 | COc1ccc(Oc2ccccc2CN(CC[C@H](N)C(=O)O)Cc2ccccc2Oc2ccc(OC)cc2)cc1 | 11.9 | 8.7 | 
10 | N[C@@H](CCN(Cc1ccccc1Oc1ccccn1)Cc1ccccc1Oc1ccccn1)C(=O)O | 59.6 | 68.2 | 
11 | N[C@@H](CCN(Cc1ccccc1Oc1cccc(F)c1)Cc1ccccc1Oc1cccc(F)c1)C(=O)O |  | 36.3 | 
12 | Cc1ccc(COc2ccccc2CN(CC[C@H](N)C(=O)O)Cc2ccccc2OCc2ccc(C)cc2)cc1 | 17.5 | 86.4 | 
13 | Cc1ccccc1COc1ccccc1CN(CC[C@H](N)C(=O)O)Cc1ccccc1OCc1ccccc1C | 25.6 | 41.7 | 
14 | N[C@@H](CCC(=O)Nc1ccc([N+](=O)[O-])cc1)C(=O)O | 1200 |  | 1000
15 | N[C@@H](CCN(Cc1ccccc1OCc1cccnc1)Cc1ccccc1OCc1cccnc1)C(=O)O | 69.1 | 17.3 | 
16 | COc1cccc(COc2ccccc2CN(CC[C@H](N)C(=O)O)Cc2ccccc2OCc2cccc(OC)c2)c1 | 7.2 | 5.1 | 
17 | N[C@@H](CCN(Cc1ccccc1Oc1ccccc1F)Cc1ccccc1Oc1ccccc1F)C(=O)O | 33.8 | 1.8 | 
18 | N[C@@H](CCN(Cc1ccccc1OCc1ccccc1F)Cc1ccccc1OCc1ccccc1F)C(=O)O |  | 3.3 | 
19 | N[C@@H](CCN(Cc1ccccc1Oc1ccc(Cl)cc1)Cc1ccccc1Oc1ccc(Cl)cc1)C(=O)O | 26 |  | 
20 | N[C@@H](COC(=O)c1ccc(-c2ccccc2)cc1)C(=O)O |  |  | 30
